# Test results published in ChEMBL document CHEMBL5465560, “Selectivity Literature for EUbOPEN Chemogenomic Library” (2024).
# Key:
# [1] = system: Fibroblast growth factor receptor 3 (Homo sapiens), P22607 [G697C]; assay: (§1) Selectivity interaction (KinomeScan (DiscoverX)) EUB0000229b FGFR3; details: at 1 µM
# [2] = molecular target: Fibroblast growth factor receptor 3 (Homo sapiens, UniProt P22607); assay: as §1; details: at 10 µM
# [3] = molecular target: Protein arginine N-methyltransferase 1 (Homo sapiens, UniProt Q99873); details: at 1 µM
# [4] = molecular target: Cyclin-dependent kinase 16 (Homo sapiens) (UniProt Q00536); assay: Selectivity interaction (KinomeScan (DiscoverX)) EUB0000045b CDK16
# [5] = molecular target: T1, Serine/threonine-protein kinase DCLK2 (Homo sapiens) (UniProt Q8N568); assay: Selectivity interaction (KinomeScan (DiscoverX)) EUB0000045b DCLK2
# T1 sequence (whole entry): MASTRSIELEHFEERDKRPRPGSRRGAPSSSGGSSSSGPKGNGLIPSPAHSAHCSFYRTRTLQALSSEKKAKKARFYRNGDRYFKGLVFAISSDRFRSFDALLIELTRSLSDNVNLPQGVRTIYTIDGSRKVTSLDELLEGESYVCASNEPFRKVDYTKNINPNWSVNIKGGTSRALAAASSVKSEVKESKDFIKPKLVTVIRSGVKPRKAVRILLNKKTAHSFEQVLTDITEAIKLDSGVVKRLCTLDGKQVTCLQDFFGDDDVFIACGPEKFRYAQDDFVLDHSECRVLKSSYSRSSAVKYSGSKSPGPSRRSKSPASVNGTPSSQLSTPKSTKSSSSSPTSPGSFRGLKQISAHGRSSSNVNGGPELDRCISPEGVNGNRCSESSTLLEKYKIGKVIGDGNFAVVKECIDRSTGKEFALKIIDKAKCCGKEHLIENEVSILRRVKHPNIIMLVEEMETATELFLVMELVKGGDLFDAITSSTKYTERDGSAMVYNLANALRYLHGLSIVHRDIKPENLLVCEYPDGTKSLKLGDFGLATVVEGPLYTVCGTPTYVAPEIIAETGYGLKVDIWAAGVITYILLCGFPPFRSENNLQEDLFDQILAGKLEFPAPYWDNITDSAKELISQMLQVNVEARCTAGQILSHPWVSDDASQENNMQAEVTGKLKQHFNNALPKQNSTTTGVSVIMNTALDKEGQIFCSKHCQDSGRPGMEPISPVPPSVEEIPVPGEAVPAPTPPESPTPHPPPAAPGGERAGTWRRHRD
# [6] = molecular target: T2, Muscarinic acetylcholine receptor M2 (Homo sapiens) (UniProt P08172); assay: Selectivity interaction (GPCR panel (PDSP screen)) EUB0001079a CHRM2; details: at 10 µM
# T2 sequence (whole entry): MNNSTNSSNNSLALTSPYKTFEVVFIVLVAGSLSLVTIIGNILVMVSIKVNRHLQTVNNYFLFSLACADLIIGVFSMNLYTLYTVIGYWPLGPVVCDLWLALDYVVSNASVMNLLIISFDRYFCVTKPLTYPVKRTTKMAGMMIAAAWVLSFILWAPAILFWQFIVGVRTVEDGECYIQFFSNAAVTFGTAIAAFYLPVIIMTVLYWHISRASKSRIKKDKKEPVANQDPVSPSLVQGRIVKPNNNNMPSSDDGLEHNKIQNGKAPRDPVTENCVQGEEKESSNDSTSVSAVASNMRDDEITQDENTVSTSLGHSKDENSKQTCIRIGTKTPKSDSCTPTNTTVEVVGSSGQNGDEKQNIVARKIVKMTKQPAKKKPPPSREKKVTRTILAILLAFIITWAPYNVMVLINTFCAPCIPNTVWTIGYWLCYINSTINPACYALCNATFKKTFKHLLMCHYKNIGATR
# [7] = molecular target: T3, Serine/threonine-protein kinase 17A (Homo sapiens) (UniProt Q9UEE5); assay: Selectivity interaction (KinomeScan (DiscoverX)) EUB0001079a STK17A; details: at 1 µM
# T3 sequence (whole entry): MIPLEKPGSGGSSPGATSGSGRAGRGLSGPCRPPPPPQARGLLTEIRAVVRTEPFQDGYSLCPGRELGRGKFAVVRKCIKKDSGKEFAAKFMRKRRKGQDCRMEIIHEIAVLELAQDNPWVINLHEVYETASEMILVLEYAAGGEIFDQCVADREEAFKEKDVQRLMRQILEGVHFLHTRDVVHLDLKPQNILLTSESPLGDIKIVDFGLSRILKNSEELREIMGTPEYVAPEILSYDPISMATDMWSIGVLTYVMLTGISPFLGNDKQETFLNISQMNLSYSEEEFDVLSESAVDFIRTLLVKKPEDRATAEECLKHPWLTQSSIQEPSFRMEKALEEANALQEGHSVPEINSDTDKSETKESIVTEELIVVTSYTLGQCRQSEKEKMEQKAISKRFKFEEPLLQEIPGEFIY
# [8] = molecular target: Mitogen-activated protein kinase kinase kinase 20 (Homo sapiens) (UniProt Q9NYL2); details: at 10 µM
# [9] = molecular target: Protein-tyrosine kinase 6 (Homo sapiens, UniProt Q13882); details: at 10 µM
# [10] = molecular target: Serine/threonine-protein kinase PAK 6 (Homo sapiens) (UniProt Q9NQU5); assay: Selectivity interaction (ProQinase) EUB0000171b PAK6
# [11] = molecular target: T4, Dual specificity mitogen-activated protein kinase kinase 5 (Homo sapiens) (UniProt Q13163); assay: Selectivity interaction (Kinase panel (Carna Biosciences)) EUB0001542aTs MAP2K5; details: at 1 µM
# T4 sequence (whole entry): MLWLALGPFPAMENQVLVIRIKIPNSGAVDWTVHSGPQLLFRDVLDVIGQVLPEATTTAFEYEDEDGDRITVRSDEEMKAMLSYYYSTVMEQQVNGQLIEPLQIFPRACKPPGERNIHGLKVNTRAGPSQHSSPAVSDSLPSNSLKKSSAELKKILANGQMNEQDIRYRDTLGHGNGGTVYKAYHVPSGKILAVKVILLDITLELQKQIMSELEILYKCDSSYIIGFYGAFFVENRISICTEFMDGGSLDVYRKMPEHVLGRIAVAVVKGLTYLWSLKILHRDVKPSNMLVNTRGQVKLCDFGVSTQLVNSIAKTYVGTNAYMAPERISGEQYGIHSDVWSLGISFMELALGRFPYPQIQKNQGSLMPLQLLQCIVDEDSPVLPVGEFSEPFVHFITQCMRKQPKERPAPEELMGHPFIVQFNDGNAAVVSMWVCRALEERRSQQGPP
# [12] = molecular target: Calcium/calmodulin-dependent protein kinase kinase 1 (Homo sapiens) (UniProt Q8N5S9); assay: Selectivity interaction (KinomeScan (DiscoverX)) EUB0000607a CAMKK1; details: at 10 µM
# [13] = molecular target: T1, Serine/threonine-protein kinase DCLK2 (Homo sapiens); assay: Selectivity interaction (SelectScreen profiling (Invitrogen)) EUB0000607a DCLK2; details: at 2 µM
# [14] = molecular target: Hepatocyte growth factor-like protein (Homo sapiens) (UniProt P26927); assay: Selectivity interaction (KinomeScan (DiscoverX)) EUB0000655a MST1; details: at 10 µM
# [15] = molecular target: Ephrin type-A receptor 4 (Homo sapiens, UniProt P54764); assay: Selectivity interaction (KinomeScan (DiscoverX)) EUB0000092b EPHA4; details: at 10 µM
# Serine/threonine-protein kinase PAK 6 (Homo sapiens), sequence (Q9NQU5 whole entry, looked up): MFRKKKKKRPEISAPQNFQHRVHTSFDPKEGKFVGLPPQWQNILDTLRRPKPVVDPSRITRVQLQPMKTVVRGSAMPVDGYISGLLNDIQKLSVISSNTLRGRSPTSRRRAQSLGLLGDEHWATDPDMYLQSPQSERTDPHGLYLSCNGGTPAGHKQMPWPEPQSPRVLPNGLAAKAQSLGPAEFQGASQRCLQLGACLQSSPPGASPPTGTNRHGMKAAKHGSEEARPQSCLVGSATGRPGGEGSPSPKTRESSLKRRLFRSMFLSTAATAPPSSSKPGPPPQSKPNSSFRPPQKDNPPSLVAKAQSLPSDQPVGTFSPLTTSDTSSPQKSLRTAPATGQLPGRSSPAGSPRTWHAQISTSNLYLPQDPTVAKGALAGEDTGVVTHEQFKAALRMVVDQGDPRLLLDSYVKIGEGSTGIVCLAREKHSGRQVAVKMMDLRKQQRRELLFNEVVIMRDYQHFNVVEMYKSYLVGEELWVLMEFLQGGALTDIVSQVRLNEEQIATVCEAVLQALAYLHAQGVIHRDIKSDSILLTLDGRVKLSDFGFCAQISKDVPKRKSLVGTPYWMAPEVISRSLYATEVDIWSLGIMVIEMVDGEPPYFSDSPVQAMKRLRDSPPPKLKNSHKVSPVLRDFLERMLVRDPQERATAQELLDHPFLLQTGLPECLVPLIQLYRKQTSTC
# Cyclin-dependent kinase 16 (Homo sapiens), sequence (Q00536 whole entry): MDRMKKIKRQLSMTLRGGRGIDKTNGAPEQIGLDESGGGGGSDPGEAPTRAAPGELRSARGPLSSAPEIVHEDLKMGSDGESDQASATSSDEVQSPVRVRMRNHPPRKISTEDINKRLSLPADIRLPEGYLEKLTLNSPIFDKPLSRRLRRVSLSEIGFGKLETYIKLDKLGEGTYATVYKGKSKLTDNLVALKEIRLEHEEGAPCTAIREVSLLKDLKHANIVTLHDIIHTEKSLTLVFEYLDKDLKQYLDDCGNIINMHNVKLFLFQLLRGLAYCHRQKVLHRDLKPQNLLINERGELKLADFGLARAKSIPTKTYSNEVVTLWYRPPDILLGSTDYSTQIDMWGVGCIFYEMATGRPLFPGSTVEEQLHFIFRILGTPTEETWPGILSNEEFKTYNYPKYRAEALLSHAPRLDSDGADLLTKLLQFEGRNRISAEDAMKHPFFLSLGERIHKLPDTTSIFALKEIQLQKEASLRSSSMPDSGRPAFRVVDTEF
# Protein arginine N-methyltransferase 1, sequence (Q99873 whole entry, looked up): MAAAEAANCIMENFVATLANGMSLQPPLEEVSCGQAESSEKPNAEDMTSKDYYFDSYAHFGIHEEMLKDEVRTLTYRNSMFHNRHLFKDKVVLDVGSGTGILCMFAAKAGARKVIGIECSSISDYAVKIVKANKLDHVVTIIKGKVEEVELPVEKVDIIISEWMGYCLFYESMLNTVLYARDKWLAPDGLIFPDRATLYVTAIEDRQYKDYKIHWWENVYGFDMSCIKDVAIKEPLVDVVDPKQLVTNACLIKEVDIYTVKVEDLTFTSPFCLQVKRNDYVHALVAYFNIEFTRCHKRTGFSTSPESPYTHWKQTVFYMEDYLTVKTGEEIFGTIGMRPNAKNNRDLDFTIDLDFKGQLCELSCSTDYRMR
# Fibroblast growth factor receptor 3 (Homo sapiens), P22607 [G697C], sequence (P22607 whole entry G697C): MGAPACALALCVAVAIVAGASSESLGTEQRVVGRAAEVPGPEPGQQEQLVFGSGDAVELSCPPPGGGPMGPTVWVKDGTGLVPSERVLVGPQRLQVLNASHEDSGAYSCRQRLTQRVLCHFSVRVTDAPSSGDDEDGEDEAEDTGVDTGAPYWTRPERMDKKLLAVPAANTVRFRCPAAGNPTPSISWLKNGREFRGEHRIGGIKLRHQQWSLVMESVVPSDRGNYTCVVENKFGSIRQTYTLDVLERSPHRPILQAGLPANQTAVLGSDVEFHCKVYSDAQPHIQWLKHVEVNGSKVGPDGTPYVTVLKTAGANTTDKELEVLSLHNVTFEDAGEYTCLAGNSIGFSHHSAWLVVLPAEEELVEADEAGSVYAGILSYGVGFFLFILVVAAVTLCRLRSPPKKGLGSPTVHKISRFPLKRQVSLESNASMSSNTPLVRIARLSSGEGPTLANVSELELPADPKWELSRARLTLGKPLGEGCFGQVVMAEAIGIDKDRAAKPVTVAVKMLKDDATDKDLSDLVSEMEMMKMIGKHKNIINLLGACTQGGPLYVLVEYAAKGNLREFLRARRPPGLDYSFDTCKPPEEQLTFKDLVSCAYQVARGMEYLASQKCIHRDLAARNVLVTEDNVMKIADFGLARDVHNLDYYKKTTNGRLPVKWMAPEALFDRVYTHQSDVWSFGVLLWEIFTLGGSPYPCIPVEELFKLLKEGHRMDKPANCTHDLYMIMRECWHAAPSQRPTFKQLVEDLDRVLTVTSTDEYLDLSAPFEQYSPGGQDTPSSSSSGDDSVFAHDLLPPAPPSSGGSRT
# Calcium/calmodulin-dependent protein kinase kinase 1 (Homo sapiens), sequence (Q8N5S9 whole entry, looked up): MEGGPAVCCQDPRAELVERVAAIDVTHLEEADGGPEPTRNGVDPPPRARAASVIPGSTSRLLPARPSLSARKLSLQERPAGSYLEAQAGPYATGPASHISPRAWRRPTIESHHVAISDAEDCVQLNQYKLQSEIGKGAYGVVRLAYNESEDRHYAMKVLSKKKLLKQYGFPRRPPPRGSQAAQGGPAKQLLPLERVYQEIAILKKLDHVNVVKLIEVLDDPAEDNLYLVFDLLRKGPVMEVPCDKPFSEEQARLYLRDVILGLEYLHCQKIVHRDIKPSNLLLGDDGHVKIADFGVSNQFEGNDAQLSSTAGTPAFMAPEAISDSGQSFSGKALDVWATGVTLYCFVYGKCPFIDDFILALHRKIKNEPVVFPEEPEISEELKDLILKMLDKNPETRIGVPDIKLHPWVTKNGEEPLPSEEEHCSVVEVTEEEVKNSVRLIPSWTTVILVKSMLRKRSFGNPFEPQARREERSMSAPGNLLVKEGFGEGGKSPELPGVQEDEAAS
# Mitogen-activated protein kinase kinase kinase 20 (Homo sapiens), sequence (Q9NYL2 2-800 limits assumed): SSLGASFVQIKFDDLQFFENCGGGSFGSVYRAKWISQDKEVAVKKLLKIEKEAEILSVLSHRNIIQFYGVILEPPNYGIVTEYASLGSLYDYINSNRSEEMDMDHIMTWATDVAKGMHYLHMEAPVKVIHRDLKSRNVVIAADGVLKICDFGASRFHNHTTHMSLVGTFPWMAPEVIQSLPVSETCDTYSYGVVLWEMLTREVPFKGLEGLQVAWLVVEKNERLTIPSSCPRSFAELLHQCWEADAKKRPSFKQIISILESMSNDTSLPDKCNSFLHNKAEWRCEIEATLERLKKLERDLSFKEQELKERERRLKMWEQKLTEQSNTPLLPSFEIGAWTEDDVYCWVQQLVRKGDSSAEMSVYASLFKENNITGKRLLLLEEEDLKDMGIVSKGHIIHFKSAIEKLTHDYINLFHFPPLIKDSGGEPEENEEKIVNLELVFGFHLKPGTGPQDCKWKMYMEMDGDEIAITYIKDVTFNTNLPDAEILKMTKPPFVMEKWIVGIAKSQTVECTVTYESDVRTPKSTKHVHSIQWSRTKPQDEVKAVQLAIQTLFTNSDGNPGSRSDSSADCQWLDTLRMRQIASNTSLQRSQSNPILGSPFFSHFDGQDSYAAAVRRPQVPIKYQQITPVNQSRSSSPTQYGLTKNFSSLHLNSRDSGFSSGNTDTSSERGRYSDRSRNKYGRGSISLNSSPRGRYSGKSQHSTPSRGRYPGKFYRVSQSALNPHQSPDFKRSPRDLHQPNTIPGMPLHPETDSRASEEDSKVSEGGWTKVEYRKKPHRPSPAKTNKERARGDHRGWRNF
# Fibroblast growth factor receptor 3, sequence (P22607 23-806 limits assumed): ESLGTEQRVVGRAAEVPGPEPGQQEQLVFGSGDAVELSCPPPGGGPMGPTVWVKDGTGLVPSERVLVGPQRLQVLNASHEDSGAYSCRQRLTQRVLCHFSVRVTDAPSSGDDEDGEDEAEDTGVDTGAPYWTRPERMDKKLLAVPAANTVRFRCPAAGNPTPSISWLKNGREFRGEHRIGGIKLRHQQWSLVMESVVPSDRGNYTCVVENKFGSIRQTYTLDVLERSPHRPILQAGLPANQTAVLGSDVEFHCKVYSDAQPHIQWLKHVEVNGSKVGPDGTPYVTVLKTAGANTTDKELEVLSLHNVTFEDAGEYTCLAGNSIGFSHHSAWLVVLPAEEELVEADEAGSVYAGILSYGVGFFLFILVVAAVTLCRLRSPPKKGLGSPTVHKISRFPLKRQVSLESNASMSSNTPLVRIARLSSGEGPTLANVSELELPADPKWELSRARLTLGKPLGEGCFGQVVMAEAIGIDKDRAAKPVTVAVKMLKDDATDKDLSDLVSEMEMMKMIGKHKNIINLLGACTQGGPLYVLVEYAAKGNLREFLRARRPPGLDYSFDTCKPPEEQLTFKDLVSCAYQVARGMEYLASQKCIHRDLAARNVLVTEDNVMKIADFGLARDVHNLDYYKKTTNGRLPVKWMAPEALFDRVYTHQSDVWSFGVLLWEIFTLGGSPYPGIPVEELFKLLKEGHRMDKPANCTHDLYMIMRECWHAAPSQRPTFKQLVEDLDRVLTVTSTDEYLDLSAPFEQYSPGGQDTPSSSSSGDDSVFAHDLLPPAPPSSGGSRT
# Protein-tyrosine kinase 6, sequence (Q13882 whole entry, looked up): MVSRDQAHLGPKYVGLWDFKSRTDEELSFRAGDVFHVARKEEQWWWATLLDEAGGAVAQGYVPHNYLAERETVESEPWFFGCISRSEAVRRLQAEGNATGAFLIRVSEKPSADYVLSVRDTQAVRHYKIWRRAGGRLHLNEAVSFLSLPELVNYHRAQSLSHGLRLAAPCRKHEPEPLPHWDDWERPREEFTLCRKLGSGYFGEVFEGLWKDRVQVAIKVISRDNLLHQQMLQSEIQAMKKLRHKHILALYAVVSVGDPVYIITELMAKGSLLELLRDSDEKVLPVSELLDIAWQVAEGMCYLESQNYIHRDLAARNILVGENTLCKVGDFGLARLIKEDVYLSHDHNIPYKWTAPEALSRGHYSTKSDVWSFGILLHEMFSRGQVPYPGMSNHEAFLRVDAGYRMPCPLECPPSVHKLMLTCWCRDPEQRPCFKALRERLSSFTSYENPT
smiles,measurement,setting,value
COc1cc(N(C)c2ccnc3ccc(C(F)(F)F)cc23)cc(OC)c1OC,% binding,[1],90%
same,% binding,[2],100%
CNCCN1CCC(c2cc(CN(C)C(=O)c3cccc(Oc4ccccc4)c3)ccn2)CC1,% activity,[3],> 90%
C=CC(=O)Nc1cc(-n2c(=O)ccc3cnc4ccc(-c5ccc(NS(C)(=O)=O)cc5)cc4c32)ccc1C,% of control,[4]; at 1 µM,100%
same,% of control,[4]; at 10 µM,100%
same,% of control,[5]; at 1 µM,100%
same,% of control,[5]; at 10 µM,100%
Nc1cnc(N2CCc3cc(S(=O)(=O)Nc4c(F)cc(Cl)cc4F)cc(N4CCCC4=O)c32)nc1 [TP-020n],% of inhibition,[6],3.7%
same,% of control,[7],100%
Cc1cc([C@@H](C)Nc2ccccc2C(=O)O)c2nc(N3CCOCC3)cc(=O)n2c1 [AZD-6482],% of control,[8],100%
same,% of control,[9],75%
C=CC(=O)Nc1cccc(C(=O)Nc2ccc(Nc3cc(-c4[nH]c(SC)nc4C)ccn3)cc2)c1,% of control,[10]; at 1 µM,92%
same,% of control,[10]; at 5 µM,76%
Cn1cc(Nc2nccc(N3CC4CCC(C3)N4C(=O)[C@@H]3CC3(F)F)n2)cn1,% of inhibition,[11],70%
CNC(=O)Nc1ccc(-c2nc(N3CC4CCC(C3)O4)c3cnn(C4CCC5(CC4)OCCO5)c3n2)cc1,% of control,[12],100%
same,% of inhibition,[13],2%
CN(C)CCOc1ccc(-c2nc(-c3ccncc3)c(-c3ccc4c(c3)CC/C4=N\O)[nH]2)cc1,% of control,[14],100%
CCC(=O)N1CCN(c2ccc(-n3c(=O)ccc4cnc5ccc(-c6cnc7ccccc7c6)cc5c43)cc2C(F)(F)F)CC1,% of control,[15],90%
